Test results taken from patent US20230203081A1, “LINCOSAMIDE ANTIBIOTICS AND USES THEREOF” (President and Fellows of Harvard College, priority 2020, published 2023).

Legend:
[1] = test system: susceptible S. aureus and E. faecium strains; test: Time-kill studies; type: cell-based
Protocol: . Experiments were performed in duplicate following CLSI guidelines. An inoculum was prepared in Mueller-Hinton broth (MHB) containing 0.5-5×10^6 CFU/mL of test organism. Cultures were incubated at 37° C. in a shaker incubator at 110 rpm; a flask containing bacteria left unexposed to antibiotic was used as untreated control. At time points 0, 1, 3, 6, and 24 h following administration of antibiotic, bacterial counts were determined from each flask by serial dilution and plating on brain heart infusion agar (BD, Sparks, M D). Plates were incubated at 37° C. in incubators for 18-24 hours to determine bacterial counts. For streptococcal strains, blood agar plates (Tryptic Soy Agar with 5% Sheep Blood) were used for culturing the organisms (plates were incubated in the presence of 5% CO2), and time-kill studies were performed in media supplemented with 5% laked horse blood.

S. aureus (MRSA) = test: Murine neutropenic thigh infection model; details: neutropenic mouse thigh, 24 h after a single intraperitoneal dose of 60 mg/kg
Protocol: Animal studies: Animal experiments were performed at the Biology Research Infrastructure Laboratory of Harvard University following IACUC-approved protocols. Animals were maintained in accordance with National Research Council guidelines. Pathogen-free, 5-6-week-old, female CD-1 mice weighing 22-26 grams were obtained from Charles River Laboratories, Inc. (Kingston, N.Y.). Animals were acclimated for a minimum of three days prior to start of the studies. Mice were caged as a group of four per cage, were housed at 21-23° C. with humidity ranging from 30-70%, were exposed to 12-hour light and dark cycles, and were supplied with food and water ad libitum.
Mouse thigh infection studies: Mice were rendered neutropenic by administering cyclophosphamide intraperitoneally, 150 mg/kg four days prior, and 100 mg/kg one day prior to infection. Bacterial strains were cultured overnight on blood agar plates at 35° C. in 5% CO2. […] Homogenates were serially diluted and plated on blood agar plates (each sample was plated in duplicate), and bacterial counts (log10 CFU/thigh) were determined after incubating the plates overnight at 35° C. in 5% CO2. Each experiment was repeated twice, and mean values were calculated (n=4 mice per time point).

Question: `CSC1O[C@H]([C@H](NC(=O)[C@H]2NC[C@@H]3C[C@H](CC(C)C)CCO[C@H]32)[C@H](C)Cl)C(O)[C@@H](O)[C@H]1O` (stereo partly drawn) [FSA-513018b] was tested. Which cidality in time-kill ([1]; certain highly susceptible strains) did it give?
Answer: concentration-dependent cidality

Question: What about the “mode of action in broth culture profiling (time-kill)” value ([1]; result in words) of the same compound?
Answer: bacteriostatic

Question: And the “reduction in bacterial burden vs clindamycin- and vehicle-treated controls” value (S. aureus (MRSA))?
Answer: statistically significant reductions
